Assay results from paper PMC10201364 (MicrobiologyOpen, 2023).

Columns and labels:
[1] = target: Ah‐BarR (P ah‐at aminotransferase promoter, mKate2 reporter) (Acidianus hospitalis, UniProt F4B5V3); experiment: cell-based
Description: (§1) Reporter gene assays were performed as previously described (Bernauw et al., [2022]). pPRC6 and pITC variants (Table 1) were co‐transformed in E. coli MG1655 chemical competent cells using heat shock transformation. Transformant colonies of the Ah‐BarR biosensor strains were picked to inoculate wells of a transparent 96‐well plate (Greiner Bio‐One), each well filled with 200 µL of MOPS EZ Rich Defined medium (Teknova), prepared without the addition of the 5X EZ Supplement, after which the plate was incubated overnight in a ThermoMixer C (Eppendorf) at 30°C and 300 rpm. Next, a black 96‐well plate was filled with a naringenin solution prepared in ethanol (250 mg/L or 2.5 g/L), after which a Breathe‐Easy sealing membrane (Sigma‐Aldrich) was applied and the ethanol was evaporated in a ThermoMixer C (Eppendorf) at 75°C. […] Finally, the plate was sealed again using a Breathe‐Easy sealing membrane (Sigma‐Aldrich).
(§2) Plates were incubated at 30°C and 300 rpm for 40 h in a Synergy H1 microplate reader (BioTek) with measurements of OD600 and fluorescence (excitation wavelength: 588 nm, emission wavelength: 633 nm) being taken every 20 min. The gain was set to 140 for all measurements, except for the measurements with the amino acids (pools and separately), where the gain was set to 150. […] In addition, wells solely containing medium were measured as well to correct for the background signal.
(§3) Reporter expression was analyzed at t = 30 h, when all cultures had reached the stationary phase, by taking into account three subsequent time points (t–1, t, t+1). The corrected FL/OD600 value was calculated for each replicate (n = 4) as follows: FL/ODcor=FLt−1−FLmed,t−1/ODt−1−ODmed,t−1+FLt−FLmed,t/ODt−ODmed,t+FLt+1−FLmed,t+1/ODt+1−ODmed,t+1/3
(§4) Response curves were fitted to a Hill function of the shape P(M)=b+aM^n/θ^n+M^nforaβ−alanine−inducible responseb+aθ^n/θ^n+M^nforaβ−alanine−repressible response according to a previously published procedure (Landry et al., [2018]) with minor adaptations. […] Briefly, lmfit 1.1.0 was used to fit all replicates of a response curve to the appropriate Hill function using the Levenberg‐Marquardt algorithm (Moré, [1978]; Newville et al., [2016]). […] The dynamic range was estimated as μ=a/b .

[2] = target: Ah‐BarR T134A (P ah‐barR promoter, mKate2 reporter) (Acidianus hospitalis, UniProt F4B5V3, T134A); experiment: cell-based
Description: as §1, §2, §3, §4

[3] = BS2, β‐alanine 0–10 mM, 20 mg/L naringenin, Hill fit
[4] = BS1 T134A, β‐alanine 0–10 mM, 20 mg/L naringenin, Hill fit

Chain of Ah‐BarR T134A (P ah‐barR promoter, mKate2 reporter) (F4B5V3 entry or part of it T134A): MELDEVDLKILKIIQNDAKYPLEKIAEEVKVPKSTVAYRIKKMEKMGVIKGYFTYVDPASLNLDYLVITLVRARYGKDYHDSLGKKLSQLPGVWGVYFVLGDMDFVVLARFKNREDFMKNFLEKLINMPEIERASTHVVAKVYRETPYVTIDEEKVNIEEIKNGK
Chain of Ah‐BarR (P ah‐at aminotransferase promoter, mKate2 reporter) (F4B5V3 1-165): as the sequence (F4B5V3 entry or part of it T134A) above, with A134T counted along it

Compound: NCCC(=O)O [β‐alanine]
- EC50 [1]: 110 µM
- Hill coefficient n ([1]; BS2, 20 mg/L naringenin): 1.62
- Dynamic range µ ([1]; BS2, µ = a/b): 1.58
- Basal fluorescence output b [1, 3]: 313 RFU
- Maximum fluorescence increase a [1, 3]: 494 RFU
- EC50 [2]: 1610 µM
- Hill coefficient n ([2]; BS1 T134A, 20 mg/L naringenin): 1.68
- Dynamic range µ ([2]; BS1 T134A, µ = a/b): 4.06
- Basal fluorescence output b [2, 4]: 2145 RFU
- Maximum fluorescence increase a [2, 4]: 8703 RFU
